According to patent publication US20240116985A1, “STAPLED PEPTIDES AND METHODS THEREOF” (priority 2020, published 2024):
≈ marks a conversion by molar mass, not a printed value. Like-named read-outs stand apart in the source and are kept apart here.

Columns and labels:
CHI Log D procedure = type: physicochemical; conditions: for CHI Log D: pH 7.4; for chromatographic logD: pH 7.4, CHI Log D
[1] = target: T1, full-length beta-Catenin (Uniprot ID P35222) (Homo sapiens, UniProt P35222); test: Fluorescence polarization IC50 (beta-catenin / 5FAM-TCF4 10-53 competition); type: binding
T1 construct: 10 nM full-length beta-Catenin (Uniprot ID P35222)
T1 sequence (P35222 1-781): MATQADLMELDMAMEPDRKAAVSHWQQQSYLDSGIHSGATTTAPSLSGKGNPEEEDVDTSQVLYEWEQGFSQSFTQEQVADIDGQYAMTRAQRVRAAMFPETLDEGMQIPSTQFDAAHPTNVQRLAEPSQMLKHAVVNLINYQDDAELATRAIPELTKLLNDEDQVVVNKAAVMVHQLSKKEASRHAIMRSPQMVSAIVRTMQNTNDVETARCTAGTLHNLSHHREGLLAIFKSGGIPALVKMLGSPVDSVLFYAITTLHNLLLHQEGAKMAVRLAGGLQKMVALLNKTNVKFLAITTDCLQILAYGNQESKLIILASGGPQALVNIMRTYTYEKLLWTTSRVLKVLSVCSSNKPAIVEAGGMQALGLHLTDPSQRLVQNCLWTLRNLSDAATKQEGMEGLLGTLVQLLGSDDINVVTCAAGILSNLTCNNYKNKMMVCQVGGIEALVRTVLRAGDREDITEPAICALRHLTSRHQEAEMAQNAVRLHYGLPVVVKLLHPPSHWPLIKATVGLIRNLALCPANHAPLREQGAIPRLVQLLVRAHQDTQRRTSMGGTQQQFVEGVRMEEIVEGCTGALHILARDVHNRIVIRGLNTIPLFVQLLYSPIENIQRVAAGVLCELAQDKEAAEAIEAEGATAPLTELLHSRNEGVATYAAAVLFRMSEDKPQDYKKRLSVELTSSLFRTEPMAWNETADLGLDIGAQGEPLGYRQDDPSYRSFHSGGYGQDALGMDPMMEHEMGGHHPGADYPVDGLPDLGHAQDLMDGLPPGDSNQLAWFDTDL

Solubility in PBS = type: physicochemical
In short: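 Read-out is the HPLC peak area of the supernatant from ultracentrifuged PBS solution, scaled against a 50 μM peptide DMSO injection; value reported as [(PBS area)/(DMSO area)]*50 uM.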

[2] = fluorescence polarization, read-out: beta-Catenin FP IC50

Row | CHI Log D (CHI Log D procedure) | IC50 [1, 2] [nM] | IC50 ([1]; read-out: FP EC50) [nM] | Solubility (Solubility in PBS) [µM] | chromatographic logD (CHI Log D procedure) | Solubility (Solubility in PBS; Solubility (uM)) [µM] | Compound
1 | 1.996 | 74 | 74 | 50 (≈ 91.7 µg/mL) | – | – | CC(=O)N1CCC[C@]12CC=CCCCC1(CCCC=CCCCCCC[C@@](C)(C(=O)N[C@@H](Cc3ccccc3)C(=O)N[C@@H](Cc3csc4ccccc34)C(=O)N[C@@H](CCC(N)=O)C(N)=O)NC(=O)[C@H](CC(N)=O)NC(=O)[C@H](Cc3cccs3)NC(=O)[C@H](C)NC(=O)[C@H](C)NC(=O)[C@H](CCC(=O)O)NC(=O)[C@H](CC(=O)O)NC1=O)NC(=O)[C@H](C)NC(=O)[C@H](CC(=O)O)NC2=O (stereo partly drawn) [I-447, Ac-PL3-Asp-Ala-B5-Asp-Glu-Ala-Ala-2Thi-Asn-S8-Phe-BztA-Gln-NH2]
2 | 1.976 | 92 | 92 | 50 (≈ 91.7 µg/mL) | – | – | CC(=O)N1CCC[C@]12CC=CCCCC1(CCCC=CCCCCCC[C@@](C)(C(=O)N[C@@H](Cc3ccccc3)C(=O)N[C@@H](Cc3csc4ccccc34)C(=O)N[C@@H](CCC(N)=O)C(N)=O)NC(=O)[C@H](CC(N)=O)NC(=O)[C@H](Cc3ccsc3)NC(=O)[C@H](C)NC(=O)[C@H](C)NC(=O)[C@H](CCC(=O)O)NC(=O)[C@H](CC(=O)O)NC1=O)NC(=O)[C@H](C)NC(=O)[C@H](CC(=O)O)NC2=O (stereo partly drawn) [I-448, Ac-PL3-Asp-Ala-B5-Asp-Glu-Ala-Ala-3Thi-Asn-S8-Phe-BztA-Gln-NH2]
3 | 1.998 | 53 | 53 | 30 (≈ 55 µg/mL) | – | – | CC(=O)N1CCC[C@]12CC=CCCCC1(CCCC=CCCCCCC[C@@](C)(C(=O)N[C@@H](Cc3ccccc3)C(=O)N[C@@H](Cc3csc4ccccc34)C(=O)N[C@@H](CCC(N)=O)C(N)=O)NC(=O)[C@H](CC(N)=O)NC(=O)[C@H](Cc3ccsc3)NC(=O)[C@H](C)NC(=O)[C@H](C)NC(=O)[C@H](CCC(=O)O)NC(=O)[C@H](CC(=O)O)NC1=O)NC(=O)[C@H](C)NC(=O)[C@H](CC(=O)O)NC2=O (stereo partly drawn) [I-449, Ac-PL3-Asp-Ala-B5-Asp-Glu-Ala-Ala-3Thi-Asn-S8-Phe-BztA-Gln-NH2]
4 | – | 3720 | – | 50 (≈ 92.4 µg/mL) | 1.88 | – | CC(=O)N1CCC[C@]12CC=CCCCC1(CCCC=CCCCCCC[C@@](C)(C(=O)N[C@@H](Cc3cccc(F)c3)C(=O)N[C@@H](Cc3c[nH]c4ccccc34)C(=O)N[C@@H](CCC(N)=O)C(N)=O)NC(=O)[C@H](CCC(N)=O)NC(=O)[C@H](Cc3cccs3)NC(=O)[C@H](C)NC(=O)[C@H](C)NC(=O)[C@H](CCC(=O)O)NC(=O)[C@H](CC(=O)O)NC1=O)NC(=O)[C@H](C)NC(=O)[C@H](CC(=O)O)NC2=O (stereo partly drawn) [I-450, Ac-PL3-Asp-Ala-B5-Asp-Glu-Ala-Ala-2Thi-Gln-S8-3FF-Trp-Gln-NH2]
5 | 2.023 | 81 | 81 | 40 (≈ 72.9 µg/mL) | – | – | CC(=O)N1CCC[C@]12CC=CCCCC1(CCCC=CCCCCCC[C@@](C)(C(=O)N[C@@H](Cc3ccccc3)C(=O)N[C@@H](Cc3csc4ccccc34)C(=O)N[C@@H](Cc3c[nH]cn3)C(N)=O)NC(=O)[C@H](CC(N)=O)NC(=O)[C@H](Cc3ccccc3)NC(=O)[C@H](C)NC(=O)[C@H](C)NC(=O)[C@H](CC(=O)O)NC(=O)[C@H](CC(=O)O)NC1=O)NC(=O)[C@H](C)NC(=O)[C@H](CC(=O)O)NC2=O (stereo partly drawn) [I-465, Ac-PL3-Asp-Ala-B5-Asp-Asp-Ala-Ala-Phe-Asn-S8-Phe-BztA-His-NH2]
6 | 2.069 | 19 | 19 | 50 (≈ 91.1 µg/mL) | – | – | CC(=O)N1CCC[C@]12CC=CCCCC1(CCCC=CCCCCCC[C@@](C)(C(=O)N[C@@H](Cc3ccccc3)C(=O)N[C@@H](Cc3csc4ccccc34)C(=O)N[C@@H](Cc3c[nH]cn3)C(N)=O)NC(=O)[C@H](CC(N)=O)NC(=O)[C@H](Cc3ccccc3)NC(=O)[C@H](C)NC(=O)[C@H](C)NC(=O)[C@H](CC(=O)O)NC(=O)[C@H](CC(=O)O)NC1=O)NC(=O)[C@H](C)NC(=O)[C@H](CC(=O)O)NC2=O (stereo partly drawn) [I-466, Ac-PL3-Asp-Ala-B5-Asp-Asp-Ala-Ala-Phe-Asn-S8-Phe-BztA-His-NH2]
7 | – | 62 | – | – | 2.42 | 36 (≈ 67.6 µg/mL) | CC[C@H](C)[C@@H]1NC(=O)[C@H](CC(=O)O)NC(=O)[C@]2(CC=CCCCC3(CCCC=CCCCCCC[C@@](C)(C(=O)N[C@@H](Cc4ccccc4)C(=O)N[C@@H](Cc4csc5ccccc45)C(=O)N[C@@H](Cc4c[nH]cn4)C(N)=O)NC(=O)[C@H](CC(N)=O)NC(=O)[C@H](Cc4ccccc4)NC(=O)[C@H](C)NC(=O)[C@H](C)NC(=O)[C@H](CCC(=O)O)NC(=O)[C@H](CC(=O)O)NC3=O)NC1=O)CCCN2C(C)=O (stereo partly drawn) [I-472, Ac-PL3-Asp-Ile-B5-Asp-Glu-Ala-Ala-Phe-Asn-S8-Phe-BztA-His-NH2]

The next lines start with the compound.

Row | Compound | CHI Log D (CHI Log D procedure) | IC50 [1, 2] [nM] | IC50 ([1]; read-out: FP EC50) [nM] | Solubility (Solubility in PBS) [µM] | chromatographic logD (CHI Log D procedure) | Solubility (Solubility in PBS; Solubility (uM)) [µM]
8 | CC(=O)N1CCC[C@]12CC=CCCCC1(CCCC=CCCCCCC[C@@](C)(C(=O)N[C@@H](Cc3ccccc3)C(=O)N[C@@H](Cc3csc4ccccc34)C(=O)N[C@@H](CCC(N)=O)C(N)=O)NC(=O)[C@H](CC(N)=O)NC(=O)[C@H](Cc3cccs3)NC(=O)[C@H](C)NC(=O)[C@H](C)NC(=O)[C@H](CCC(=O)O)NC(=O)[C@H](CC(=O)O)NC1=O)NC(=O)[C@H](C)NC(=O)[C@H](CC(=O)O)NC2=O (stereo partly drawn) [I-446, Ac-PL3-Asp-Ala-B5-Asp-Glu-Ala-Ala-2Thi-Asn-S8-Phe-BztA-Gln-NH2] | 1.97 | 130 | 130 | 44 (≈ 80.7 µg/mL) | – | –
9 | CC(=O)N1CCC[C@]12CC=CCCCC1(CCCC=CCCCCCC[C@@](C)(C(=O)N[C@@H](Cc3cccc(F)c3)C(=O)N[C@@H](Cc3c[nH]c4ccccc34)C(=O)N[C@@H](CCC(N)=O)C(N)=O)NC(=O)[C@H](CCC(N)=O)NC(=O)[C@H](Cc3ccsc3)NC(=O)[C@H](C)NC(=O)[C@H](C)NC(=O)[C@H](CCC(=O)O)NC(=O)[C@H](CC(=O)O)NC1=O)NC(=O)[C@H](C)NC(=O)[C@H](CC(=O)O)NC2=O (stereo partly drawn) [I-452, Ac-PL3-Asp-Ala-B5-Asp-Glu-Ala-Ala-3Thi-Gln-S8-3FF-Trp-Gln-NH2] | 1.917 | 1660 | 1660 | 50 (≈ 92.4 µg/mL) | – | –
10 | CC[C@H](C)[C@@H]1NC(=O)[C@H](CC(=O)O)NC(=O)[C@]2(CC=CCCCC3(CCCC=CCCCCCC[C@@](C)(C(=O)N[C@@H](Cc4ccccc4)C(=O)N[C@@H](Cc4csc5ccccc45)C(=O)N[C@@H](CCC(N)=O)C(N)=O)NC(=O)[C@H](CC(N)=O)NC(=O)[C@H](Cc4ccccc4)NC(=O)[C@H](C)NC(=O)[C@H](C)NC(=O)[C@H](CC(=O)O)NC(=O)[C@H](CC(=O)O)NC3=O)NC1=O)CCCN2C(C)=O (stereo partly drawn) [I-467, Ac-PL3-Asp-Ile-B5-Asp-Asp-Ala-Ala-Phe-Asn-S8-Phe-BztA-Gln-NH2] | 2.255 | 44 | 44 | 50 (≈ 92.8 µg/mL) | – | –
11 | CC[C@H](C)[C@@H]1NC(=O)[C@H](CC(=O)O)NC(=O)[C@]2(CC=CCCCC3(CCCC=CCCCCCC[C@@](C)(C(=O)N[C@@H](Cc4ccccc4)C(=O)N[C@@H](Cc4csc5ccccc45)C(=O)N[C@@H](CCC(N)=O)C(N)=O)NC(=O)[C@H](CC(N)=O)NC(=O)[C@H](Cc4ccccc4)NC(=O)[C@H](C)NC(=O)[C@H](C)NC(=O)[C@H](CC(=O)O)NC(=O)[C@H](CC(=O)O)NC3=O)NC1=O)CCCN2C(C)=O (stereo partly drawn) [I-468, Ac-PL3-Asp-Ile-B5-Asp-Asp-Ala-Ala-Phe-Asn-S8-Phe-BztA-Gln-NH2] | 2.292 | 27 | 27 | 41 (≈ 76.1 µg/mL) | – | –
12 | CC[C@H](C)[C@@H]1NC(=O)[C@H](CC(=O)O)NC(=O)[C@]2(CC=CCCCC3(CCCC=CCCCCCC[C@@](C)(C(=O)N[C@@H](Cc4ccccc4)C(=O)N[C@@H](Cc4csc5ccccc45)C(=O)N[C@@H](Cc4c[nH]cn4)C(N)=O)NC(=O)[C@H](CCC(N)=O)NC(=O)[C@H](Cc4ccccc4)NC(=O)[C@H](C)NC(=O)[C@H](C)NC(=O)[C@H](CCC(=O)O)NC(=O)[C@H](CC(=O)O)NC3=O)NC1=O)CCCN2C(C)=O (stereo partly drawn) [I-471, Ac-PL3-Asp-Ile-B5-Asp-Glu-Ala-Ala-Phe-Gln-S8-Phe-BztA-His-NH2] | – | 52 | – | – | 2.43 | 13 (≈ 24.6 µg/mL)
13 | CC[C@@H]1NC(=O)[C@H](CC(=O)O)NC(=O)[C@]2(CC=CCCCC3(CCCC=CCCCCCC[C@@](C)(C(=O)N[C@@H](Cc4ccccc4)C(=O)N[C@@H](Cc4csc5ccccc45)C(=O)N[C@@H](CCC(N)=O)C(N)=O)NC(=O)[C@H](CC(N)=O)NC(=O)[C@H](Cc4ccccc4)NC(=O)[C@H](C)NC(=O)[C@H](C)NC(=O)[C@H](CCC(=O)O)NC(=O)[C@H](CC(=O)O)NC3=O)NC1=O)CCCN2C(C)=O (stereo partly drawn) [I-473, Ac-PL3-Asp-Abu-B5-Asp-Glu-Ala-Ala-Phe-Asn-S8-Phe-BztA-Gln-NH2] | 2.076 | 121 | 121 | 39 (≈ 71.8 µg/mL) | – | –
